The record followed here is US20170114021A1, “HALOGEN-SUBSTITUTED COMPOUNDS” (priority 2014, published 2017).

Where two headings read alike, the source gives them in different places.

The nature of data set [1]: log P by HPLC on reversed-phase column (C18), EEC Directive 79/831 Annex V.A8. The format is physicochemical. Here is the method: ^a) Unless indicated otherwise, the following method was used to determine the log P values and masses: The determination of the given log P values was carried out in accordance with EEC Directive 79/831 Annex V.A8 by HPLC (High Performance Liquid Chromatography) on a reversed-phase column (C18). Agilent 1100 LC system; 50*4.6 Zorbax Eclipse Plus C18 1.8 micron; mobile phase A: acetonitrile (0.1% formic acid); mobile phase B: water (0.09% formic acid); linear gradient from 10% acetonitrile to 95% acetonitrile in 4.25 min, then 95% acetonitrile for a further 1.25 min; oven temperature 55° C.; flow rate: 2.0 ml/min. Mass detection is effected by means of an Agilend MSD system.

Another data set concerns Spodoptera frugiperda. Put plainly: Spodoptera frugiperda spray test (SPODFR). The format is in vivo. To be noted: application rate 100 g/ha; maize leaf discs; after 7 days. On the procedure:
Spodoptera frugiperda—Spray Test (SPODFR)
Solvent: 78.0 parts by weight of acetone • • 1.5 parts by weight of dimethylformamide Emulsifier: alkylaryl polyglycol ether
(§1) To produce a suitable preparation of active compound, 1 part by weight of active compound is dissolved using the specified parts by weight of solvent and made up with water containing an emulsifier concentration of 1000 ppm until the desired concentration is attained. To produce further test concentrations, the preparation is diluted with emulsifier-containing water.
Leaf discs of maize (Zea mays) are sprayed with an active compound preparation of the desired concentration and, after drying, populated with caterpillars of the armyworm (Spodoptera frugiperda).
After 7 days, efficacy in % is determined. 100% means that all the caterpillars have been killed; 0% means that no caterpillars have been killed.

The subject of another data set is Phaedon cochleariae. The data set is described as follows: Phaedon cochleariae spray test (PHAECO). The format is in vivo. The following applies: Chinese cabbage leaf discs, after 7 days. Here is the method: Phaedon cochleariae—Spray Test (PHAECO) Solvent: 78.0 parts by weight of acetone • • 1.5 parts by weight of dimethylformamide Emulsifier: alkylaryl polyglycol ether
as §1
After 7 days, efficacy in % is determined. 100% means that all the beetle larvae have been killed; 0% means that no beetle larvae have been killed.

A further data set relates to Tetranychus urticae. The data set is described as follows: Tetranychus urticae spray test, OP-resistant (TETRUR). In kind it is in vivo. To be noted: application rate 100 g/ha; bean leaf discs; after 6 days. On the procedure:
Tetranychus urticae—Spray Test, OP-Resistant (TETRUR) Solvent: 78.0 parts by weight of acetone • • 1.5 parts by weight of dimethylformamide Emulsifier: alkylaryl polyglycol ether
as §1
Discs of bean leaves (Phaseolus vulgaris) infested by all stages of the greenhouse red spider mite (Tetranychus urticae) are sprayed with an active ingredient formulation of the desired concentration.
After 6 days, efficacy in % is determined. 100% means that all the spider mites have been killed; 0% means that no spider mites have been killed.

Another data set concerns Musca domestica. The data set is described as follows: Musca domestica test (MUSCDO). To be noted: application rate 100 ppm; adult houseflies; after 2 days. In kind it is in vivo. Here is the method: Musca domestica-Test (MUSCDO) Solvent: dimethyl sulphoxide
(§2) To produce a suitable preparation of active compound, 10 mg of active compound are mixed with 0.5 ml of dimethyl sulphoxide, and the concentrate is diluted with water to the desired concentration.
Vessels containing a sponge treated with sugar solution and the active compound preparation of the desired concentration are populated with 10 adult houseflies (Musca domestica).
After 2 days, the kill in % is determined. 100% means that all of the flies have been killed; 0% means that none of the flies have been killed.

The next data set relates to Ctenocephalides felis. The data set is described as follows: Ctenocephalides felis oral test (CTECFE). In kind it is in vivo. To be noted: application rate 100 ppm in citrated cattle blood; after 2 days. On the procedure:
Ctenocephalides felis—Oral Test (CTECFE) Solvent: dimethyl sulphoxide
To produce a suitable preparation of active compound, 10 mg of active compound are mixed with 0.5 ml of dimethyl sulphoxide. Dilution with citrated cattle blood gives the desired concentration.
About 20 unfed adult cat fleas (Ctenocephalides felis) are placed into a chamber which is closed at the top and bottom with gauze. A metal cylinder whose bottom end is closed with parafilm is placed onto the chamber. The cylinder contains the blood/active compound preparation, which can be imbibed by the fleas through the parafilm membrane.
After 2 days, the kill in % is determined. 100% means that all of the fleas have been killed; 0% means that none of the fleas have been killed.

The subject of a further data set is Lucilia cuprina. The data set is described as follows: Lucilia cuprina test (LUCICU). In kind it is in vivo. The following applies: application rate 100 ppm; L1 larvae; after 2 days. Here is the method:
Lucilia cuprina-Test (LUCICU) Solvent: dimethyl sulphoxide
as §2
About 20 L1 larvae of the Australian sheep blowfly (Lucilia cuprina) are transferred into a test vessel containing minced horsemeat and the active compound preparation of the desired concentration.
After 2 days, the kill in % is determined. 100% means that all the larvae have been killed; 0% means that no larvae have been killed.

The next data set has as its system Boophilus microplus. Put plainly: Boophilus microplus injection test (BOOPMI Inj). In kind it is in vivo. To be noted: application rate 20 μg/animal; injection into abdomen. Here is the method:
Boophilus microplus—Injection Test (BOOPMI Inj) Solvent: dimethyl sulphoxide
To produce a suitable preparation of active compound, 10 mg of active compound are mixed with 0.5 ml of solvent and the concentrate is diluted with solvent to the desired concentration.
1 μl of the active compound solution is injected into the abdomen of 5 engorged adult female cattle ticks (Boophilus microplus). The animals are transferred into dishes and kept in a climate-controlled room.
The activity is assessed after the desired time by laying of fertile eggs. Eggs which are not visibly fertile are stored in a climate-controlled cabinet until the larvae hatch after about 42 days. An efficacy of 100% means that none of the ticks has laid any fertile eggs; 0% means that all the eggs are fertile.

The mark [2] stands for this setting: reversed-phase C18 HPLC column, HPLC, C18, acetonitrile/water with formic acid gradient, read-out: log P.

`CC(=O)c1c(C(F)(F)F)c(C(F)(F)C(F)(F)F)nn1C` [1-[1-methyl-3-(pentafluoroethyl)-4-(trifluoromethyl)-1H-pyrazol-5-yl]ethanone]: the chromatographic logP in data set [1] (setting [2]) came out at 3.61. For `Cn1cc(C(F)(F)F)c(C(F)(F)C(F)(F)F)n1` [1-methyl-3-(1,1,2,2,2-pentafluoroethyl)-4-(trifluoromethyl)pyrazole], in data set [1], the chromatographic logP worked out at 3.23. As to `Cn1nc(C(F)(F)C(F)(F)F)c(C(F)(F)F)c1B1OC(C)(C)C(C)(C)O1` [1-methyl-3-(1,1,2,2,2-pentafluoroethyl)-5-(4,4,5,5-tetramethyl-1,3,2-dioxaborolan-2-yl)-4-(trifluoromethyl)pyrazole], the chromatographic logP in data set [1] (setting [2]) was found to be 5.05.

Regarding `O=C(NC1CC1)c1cc(I)ccc1Cl` [2-chloro-N-cyclopropyl-5-iodobenzamide], the chromatographic logP in data set [1] (setting [2]) was determined as 2.13. On the same count and under the same terms, with `Cn1nc(C(F)(F)C(F)(F)F)c(C(F)(F)F)c1-c1cc[nH]n1` [2′-methyl-5′-(pentafluoroethyl)-4′-(trifluoromethyl)-1H,2′H-3,3′-bipyrazole] the figure was 3.03; with `Cn1nc(C(F)(F)C(F)(F)F)c(C(F)(F)F)c1-c1c[nH]nn1` [4-[1-methyl-3-(pentafluoroethyl)-4-(trifluoromethyl)-1H-pyrazol-5-yl]-1H-1,2,3-triazole], 2.78.

Turning to `O=C(NC1CC1)c1cc(-n2cc(Br)cn2)ccc1Cl` [5-(4-bromopyrazol-1-yl)-2-chloro-N-cyclopropylbenzamide], the chromatographic logP in data set [1] (setting [2]) was found to be 2.36. As for `Cn1nc(C(F)(F)C(F)(F)F)c(C(F)(F)F)c1-c1nn[nH]n1` [5-[1-methyl-3-(pentafluoroethyl)-4-(trifluoromethyl)-1H-pyrazol-5-yl]-2H-tetrazole], the chromatographic logP in data set [1] (setting [2]) turned out to be 2.11. Still for that read-out and setting: with `[N-]=[N+]=Nc1ccc(Cl)c(C(=O)NC2CC2)c1` [5-azido-2-chloro-N-cyclopropylbenzamide] the figure was 1.8. On the same count and under the same terms, with `C#Cc1c(C(F)(F)F)c(C(F)(F)C(F)(F)F)nn1C` [5-ethynyl-1-methyl-3-(pentafluoroethyl)-4-(trifluoromethyl)-1H-pyrazole] the figure was 3.74; with `CN(C)/C=C/C(=O)c1c(C(F)(F)F)c(C(F)(F)C(F)(F)F)nn1C` [(2E)-3-(dimethylamino)-1-[1-methyl-3-(pentafluoroethyl)-4-(trifluoromethyl)-1H-pyrazol-5-yl]prop-2-en-1-one], 2.77.

In the case of `Cn1nc(C(F)(F)C(F)(F)F)c(C(F)(F)F)c1-c1ccn(-c2ccc(Cl)c(C(=O)NC3CC3)c2)n1` [Id-1, 2-chloro-N-cyclopropyl-5-[2′-methyl-5′-(pentafluoroethyl)-4′-(trifluoromethyl)-1H,2′H-3,3′-bipyrazol-1-yl]benzamide], the chromatographic logP in data set [1] (setting [2]) is 4.05. Moreover, the efficacy in the data set with Spodoptera frugiperda and in the data set with Phaedon cochleariae (application rate 100 g/ha) was 100% in each case. Regarding `Cn1nc(C(F)(F)C(F)(F)F)c(C(F)(F)F)c1-c1cnn(-c2ccc(Cl)c(C(=O)NC3CC3)c2)n1` [If-1, 2-chloro-N-cyclopropyl-5-{4-[1-methyl-3-(pentafluoroethyl)-4-(trifluoromethyl)-1H-pyrazol-5-yl]-2H-1,2,3-triazol-2-yl}benzamide], in data set [1] (setting [2]), the chromatographic logP turned out to be 4.17. For the same compound, the efficacy in the data set on Tetranychus urticae, in the data set with Spodoptera frugiperda and in the data set on Phaedon cochleariae (application rate 100 g/ha) was 100% each time. Moreover, the “efficacy (kill)” value in the data set with Musca domestica, in the data set with Ctenocephalides felis and with Lucilia cuprina was 100% in each case. The “efficacy (laying of fertile eggs)” value in the data set with Boophilus microplus came out at 100%. As to `Cn1nc(C(F)(F)C(F)(F)F)c(C(F)(F)F)c1-c1nnn(-c2ccc(Cl)c(C(=O)NC3CC3)c2)n1` [Ih-1, 2-chloro-N-cyclopropyl-5-{5-[1-methyl-3-(pentafluoroethyl)-4-(trifluoromethyl)-1H-pyrazol-5-yl]-2H-tetrazol-2-yl}benzamide], the chromatographic logP in data set [1] (setting [2]) worked out at 4.06. Also, the figures for the efficacy in the data set on Tetranychus urticae, in the data set on Spodoptera frugiperda and with Phaedon cochleariae (application rate 20 g/ha) were 90%, 100% and 100%, respectively. For `CON(C)C(=O)c1c(C(F)(F)F)c(C(F)(F)C(F)(F)F)nn1C` [N-methoxy-N,1-dimethyl-3-(pentafluoroethyl)-4-(trifluoromethyl)-1H-pyrazole-5-carboxamide], the chromatographic logP in data set [1] (setting [2]) came out at 3.22.

As to `O=C(NC1CC1)c1cc(B(O)O)ccc1Cl` [[4-chloro-3-(cyclopropylcarbamoyl)phenyl]boronic acid], the chromatographic logP in data set [1] (setting [2]) came out at 0.96.
